{"source": "PubChem BioAssay AID330", "about": "(DTP/NCI, 2004)", "tested_on": "P388 leukemia ip, CD2F1 mice, survival T/C", "assay": "NCI In Vivo Anticancer Drug Screen. Data for tumor model P388 Leukemia (intraperitoneal) in CD2F1 (CDF1) mice", "details": "endpoint: median survival time, higher = longer survival", "summary_of_the_method": "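Mice carrying the transplanted tumor received test compound or vehicle. Survival was recorded in each group, and the value is the treated-group measurement divided by that of the vehicle-treated control group.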", "key": {"[1]": {"details": "dose: 50.0 mg/kg/injection, schedule: Q01DX005 (ip), vehicle: saline with Tween-80"}, "[2]": {"details": "dose: 100.0 mg/kg/injection, schedule: Q01DX005 (ip), vehicle: saline with Tween-80"}, "[3]": {"details": "dose: 50.0 mg/kg/injection, schedule: Q01DX005 (ip), vehicle: Klucel (hydroxypropylcellulose) (HPC)"}, "[4]": {"details": "dose: 100.0 mg/kg/injection, schedule: Q01DX005 (ip), vehicle: Klucel (hydroxypropylcellulose) (HPC)"}, "[5]": {"details": "dose: 200.0 mg/kg/injection, schedule: Q01DX005 (ip), vehicle: Klucel (hydroxypropylcellulose) (HPC)"}, "[6]": {"details": "dose: 12.5 mg/kg/injection, schedule: Q01DX009 (ip), vehicle: saline with Tween-80"}, "[7]": {"details": "dose: 25.0 mg/kg/injection, schedule: Q01DX009 (ip), vehicle: saline with Tween-80"}, "[8]": {"details": "dose: 50.0 mg/kg/injection, schedule: Q01DX009 (ip), vehicle: saline with Tween-80"}}, "note": "Values joined by “and” are separate entries in the source; they are usually repeats but may differ in a detail not shown here. Equal values may be shown once. Toxic doses and inconclusive results are not listed.", "data": [{"smiles": "C/C=C/C(=O)Oc1ccccc1/C=C/C(=O)CCCCCC", "values": [{"measurement": "T/C", "setting": "[1]", "result": "92 % of control"}, {"measurement": "T/C", "setting": "[2]", "result": "98 % of control"}, {"measurement": "T/C", "setting": "dose: 200.0 mg/kg/injection, schedule: Q01DX005 (ip), vehicle: saline with Tween-80", "result": "100 % of control"}]}, {"smiles": "Nc1nc2ncc(CCCl)cc2c(=O)[nH]1", "values": [{"measurement": "T/C", "setting": "[3]", "result": "102 % of control"}, {"measurement": "T/C", "setting": "[4]", "result": "123 % of control"}, {"measurement": "T/C", "setting": "[5]", "result": "107 % of control"}]}, {"smiles": "CCOc1ccc(NC(=O)OCCN2CCN(CCc3ccccc3)C(C)C2)cc1", "note": "(stereo not drawn)", "values": [{"measurement": "T/C", "setting": "[6]", "result": "97 % of control"}, {"measurement": "T/C", "setting": "[7]", "result": "94 % of control"}, {"measurement": "T/C", "setting": "[8]", "result": "100 % of control"}]}, {"smiles": "O=C(c1ccccc1)C1COc2ccccc2C1O", "note": "(stereo not drawn)", "values": [{"measurement": "T/C", "setting": "dose: 60.0 mg/kg/injection, schedule: Q01DX005 (ip), vehicle: saline with Tween-80", "result": "109 % of control"}, {"measurement": "T/C", "setting": "dose: 120.0 mg/kg/injection, schedule: Q01DX005 (ip), vehicle: saline with Tween-80", "result": "94 % of control"}, {"measurement": "T/C", "setting": "dose: 240.0 mg/kg/injection, schedule: Q01DX005 (ip), vehicle: saline with Tween-80", "result": "94 % of control"}]}, {"smiles": "[Cu+2].[NH-]CC1CCCC[N-]1.[NH-]CC1CCCC[N-]1.[O-][Cl+3]([O-])([O-])O", "note": "(stereo not drawn)", "values": [{"measurement": "T/C", "setting": "dose: 6.25 mg/kg/injection, schedule: Q01DX009 (ip), vehicle: saline with Tween-80", "result": "103 % of control"}, {"measurement": "T/C", "setting": "[6]", "result": "100 % of control and 96 % of control"}, {"measurement": "T/C", "setting": "[7]", "result": "107 % of control"}]}, {"smiles": "O=C(NC1CCCCC1(O)c1ccc([N+](=O)[O-])cc1)C(Cl)Cl", "note": "(stereo not drawn)", "values": [{"measurement": "T/C", "setting": "dose: 100.0 mg/kg/injection, schedule: Q04DX002 (ip), vehicle: Klucel (hydroxypropylcellulose) (HPC)", "result": "100 % of control"}, {"measurement": "T/C", "setting": "dose: 200.0 mg/kg/injection, schedule: Q04DX002 (ip), vehicle: Klucel (hydroxypropylcellulose) (HPC)", "result": "100 % of control"}]}, {"smiles": "O=C1CN(c2ccccc2)C(=O)CN1/N=C/c1ccc(Cl)cc1", "values": [{"measurement": "T/C", "setting": "[8]", "result": "91 % of control"}, {"measurement": "T/C", "setting": "dose: 100.0 mg/kg/injection, schedule: Q01DX009 (ip), vehicle: saline with Tween-80", "result": "99 % of control"}, {"measurement": "T/C", "setting": "dose: 200.0 mg/kg/injection, schedule: Q01DX009 (ip), vehicle: saline with Tween-80", "result": "102 % of control"}]}, {"smiles": "CC1(C)C(C(=O)/C=C2\\Nc3ccccc3C2(C)C)=Nc2ccccc21", "values": [{"measurement": "T/C", "setting": "dose: 60.0 mg/kg/injection, schedule: Q01DX005 (ip), vehicle: Klucel (hydroxypropylcellulose) (HPC)", "result": "102 % of control"}, {"measurement": "T/C", "setting": "dose: 120.0 mg/kg/injection, schedule: Q01DX005 (ip), vehicle: Klucel (hydroxypropylcellulose) (HPC)", "result": "91 % of control"}, {"measurement": "T/C", "setting": "dose: 240.0 mg/kg/injection, schedule: Q01DX005 (ip), vehicle: Klucel (hydroxypropylcellulose) (HPC)", "result": "98 % of control"}]}, {"smiles": "CCCCCCCCCCCCS(=O)(=O)CC(Br)C(=O)c1ccco1", "note": "(stereo not drawn)", "values": [{"measurement": "T/C", "setting": "dose: 100.0 mg/kg/injection, schedule: Q04DX002 (ip), vehicle: saline", "result": "100 % of control"}, {"measurement": "T/C", "setting": "dose: 200.0 mg/kg/injection, schedule: Q04DX002 (ip), vehicle: saline", "result": "100 % of control"}, {"measurement": "T/C", "setting": "dose: 400.0 mg/kg/injection, schedule: Q04DX002 (ip), vehicle: saline", "result": "100 % of control"}]}, {"smiles": "[NH-]C(CO)C(O)c1ccccc1.[NH-]C(CO)C(O)c1ccccc1.[NH-]C(CO)C(O)c1ccccc1.[Pr+3]", "note": "(stereo not drawn)", "values": [{"measurement": "T/C", "setting": "[3]", "result": "103 % of control"}, {"measurement": "T/C", "setting": "[4]", "result": "97 % of control"}, {"measurement": "T/C", "setting": "[5]", "result": "99 % of control"}]}, {"smiles": "CCOC(=O)C(=O)Nc1c(C(=O)OC)cc(C)c(C)c1C#N", "values": [{"measurement": "T/C", "setting": "dose: 50.0 mg/kg/injection, schedule: Q01DX009 (ip), vehicle: Klucel (hydroxypropylcellulose) (HPC)", "result": "93 % of control"}, {"measurement": "T/C", "setting": "dose: 100.0 mg/kg/injection, schedule: Q01DX009 (ip), vehicle: Klucel (hydroxypropylcellulose) (HPC)", "result": "94 % of control"}, {"measurement": "T/C", "setting": "dose: 200.0 mg/kg/injection, schedule: Q01DX009 (ip), vehicle: Klucel (hydroxypropylcellulose) (HPC)", "result": "93 % of control"}]}, {"smiles": "C[C@]12C=CC(=O)C=C1CC[C@H]1[C@@H]3CCC(=O)O[C@@]3(C)CC(=O)[C@@]12F", "values": [{"measurement": "T/C", "setting": "dose: 100.0 mg/kg/injection, schedule: Q04DX003 (ip), vehicle: saline with Tween-80", "result": "91 % of control"}, {"measurement": "T/C", "setting": "dose: 200.0 mg/kg/injection, schedule: Q04DX003 (ip), vehicle: saline with Tween-80", "result": "95 % of control"}, {"measurement": "T/C", "setting": "dose: 400.0 mg/kg/injection, schedule: Q04DX003 (ip), vehicle: saline with Tween-80", "result": "100 % of control"}]}, {"smiles": "NC(=O)CC(N)CO", "note": "(stereo not drawn)", "values": [{"measurement": "T/C", "setting": "dose: 50.0 mg/kg/injection, schedule: Q01DX009 (ip), vehicle: saline", "result": "100 % of control"}, {"measurement": "T/C", "setting": "dose: 100.0 mg/kg/injection, schedule: Q01DX009 (ip), vehicle: saline", "result": "100 % of control"}, {"measurement": "T/C", "setting": "dose: 200.0 mg/kg/injection, schedule: Q01DX009 (ip), vehicle: saline", "result": "103 % of control"}, {"measurement": "T/C", "setting": "dose: 400.0 mg/kg/injection, schedule: Q01DX009 (ip), vehicle: saline", "result": "101 % of control"}]}, {"smiles": "CCCCCCCCCCCCS(=O)(=O)CCC(=O)c1ccco1", "values": [{"measurement": "T/C", "setting": "dose: 100.0 mg/kg/injection, schedule: Q04DX003 (ip), vehicle: saline", "result": "99 % of control"}, {"measurement": "T/C", "setting": "dose: 200.0 mg/kg/injection, schedule: Q04DX003 (ip), vehicle: saline", "result": "99 % of control"}, {"measurement": "T/C", "setting": "dose: 400.0 mg/kg/injection, schedule: Q04DX003 (ip), vehicle: saline", "result": "97 % of control"}]}, {"smiles": "O=C1C(n2ccc(=O)[nH]c2=O)CCN1CCCl", "note": "(stereo not drawn)", "values": [{"measurement": "T/C", "setting": "[4]", "result": "108 % of control"}, {"measurement": "T/C", "setting": "[5]", "result": "108 % of control"}]}, {"smiles": "CCP(=O)(CC)CC", "values": [{"measurement": "T/C", "setting": "dose: 25.0 mg/kg/injection, schedule: Q01DX005 (ip), vehicle: saline", "result": "98 % of control"}, {"measurement": "T/C", "setting": "dose: 50.0 mg/kg/injection, schedule: Q01DX005 (ip), vehicle: saline", "result": "105 % of control"}, {"measurement": "T/C", "setting": "dose: 100.0 mg/kg/injection, schedule: Q01DX005 (ip), vehicle: saline", "result": "99 % of control"}, {"measurement": "T/C", "setting": "dose: 200.0 mg/kg/injection, schedule: Q01DX005 (ip), vehicle: saline", "result": "99 % of control"}, {"measurement": "T/C", "setting": "dose: 400.0 mg/kg/injection, schedule: Q01DX005 (ip), vehicle: saline", "result": "99 % of control"}]}, {"smiles": "COC(=O)c1cc(=O)nc(NN)s1", "values": [{"measurement": "T/C", "setting": "[1]", "result": "92 % of control"}, {"measurement": "T/C", "setting": "[2]", "result": "90 % of control"}]}, {"smiles": "CC[CH2][Sn]([Br])([Br])[CH2]CC", "values": [{"measurement": "T/C", "setting": "dose: 3.12 mg/kg/injection, schedule: Q04DX003 (ip), vehicle: saline", "result": "114 % of control"}, {"measurement": "T/C", "setting": "dose: 6.25 mg/kg/injection, schedule: Q04DX003 (ip), vehicle: saline", "result": "109 % of control"}]}]}
